Measurements from patent publication US20220402883A1, “COMPOUNDS AND METHODS FOR MODULATING RNA FUNCTION” (Arrakis Therapeutics, Inc., priority 2016, published 2022).
One block for each compound: values may come before it.

Legend:
[1] = system: RNA3WJ_0.0.0_5IB_3FAM (3WJ_0.0.0_5IB_3FAM RNA construct); assay: Thermal shift binding assay; settings: for Melt. Temp. with cmpd / Shift melt. Temp.: RNA sequence 3WJ_0.0.0_5IB_FAM; for Melt. Temp. with cmpd: melting temperature in presence of compound; for Shift melt. Temp.: with cmpd minus without cmpd
Description: (§1) Purpose: Test binding of compounds for RNA three way junction (for example, a construct of 38 nt). Thermal shift assay based on established fluorescence quenching assay utilizing FAM as fluorescence tag and Iowa Black as quencher. Tags were attached at the 3′ and 5′ end, respectively. Stable formation of 3WJ upon compound binding would lead to quenching of the FAM fluorescence due to close proximity of the Iowa Black tag. Thermal unfolding leads to increase of fluorescence emission. Assay readout: FAM (465-510 nm) Thermal Shift.
(§2) Assay sample buffer used: 10 mM CacoK pH 7.2, 30 mM NaCl. Buffer preparation in Dnase/Rnase Free distilled water (Gibco Life Technologies).
(§3) Dilute the RNA 1:10 (final 10 μM) in Assay Buffer.
(§4) Heat up the diluted RNA up to 90° C. for 5 min (sealed Eppendorf Tube).
(§5) Cool down the RNA probe slowly to RT.
(§6) Dilute the compounds to 800 μM in DMSO (Assay: 8 μM). […]
(§7) Pipet 20 μL Sample Solution into Roche, Light Cycler480 Multiwell Plate96, white, REF 04729692001.
(§8) Measure the 96 plate with the LightCycler480 (Channel: 480/510 nm; Temperature: 41-91° C.).
(§9) Analyse measurement-data with the MeltingCurveGenotyping Mode.
(§10) Settings: Acquisition mode: continuous; Ramp rate: 0.1° C./sec; Acquisition: 6° C.
(§11) Curves are fitted with raw and normalized data.
(§12) Melting curves analysis show melting temperature (Tm) of ˜51° C. Range of RNA concentrations was tested and assay window was determined (conc. range of 0.5-1 μM yields best results). The choice of buffer also affected the Tm. RNA constructs were tested under different buffer conditions (especially in presence of salt) in the thermal shift assay. […] CacoK with 30 mM salt at 1 μM RNA conc. was used to assess compound effects on 3WJ stability. […] These conditions were used for screening test compounds.

[2] = system: 3WJ_0.0.0_5IB_3FAM RNA construct; assay: Fluorescence quenching binding assay (FAM / Iowa Black); settings: concentration dependent; effect at conc. >5 μM
Method: (§13) This assay will be used to test binding of compounds for RNA three way junction (such as a 38 nt construct). This is a fluorescence quenching assay utilizing FAM as fluorescence tag and Iowa Black as quencher. Tags are attached at the 3′ and 5′ end, respectively. Stable formation of MW upon compound binding would lead to quenching of the FAM fluorescence due to close proximity of the Iowa Black tag. Assay readout: FAM (485-520 nm) Fluorescence Intensity.
as §2, §3, §4, §5
(§14) Dilute the compounds to 800 μM in DMSO (Assay: 8 μM).
(§15) Final concentrations in the sample: 1-10 μM RNA, 8 μM compound, 1% DMSO
(§16) Pipet 25 μL Sample Solution into Greiner cat #784076, black, 384
(§17) Measure the 96 plate with the LightCycler480 (Channel: 485/520 nm).
Calibration of the expected fluorescence signal at various RNA concentrations in either CacoK or NaPO4 buffers was performed first. Experiments in buffers containing salt show distinct fluorescence quenching behavior. […]
First, two compounds (i.e. Ark000007 & Ark000008) were tested in the fluorescence quenching assay to assess concentration dependent influence on the fluorescence signal.

[3] = system: RNA3WJ_3.0.0_5IB_3FAM; assay: Thermal shift binding assay; settings: 1 μM RNA, 8 μM compound, 10 mM CacoK pH 7.2, 30 mM NaCl
Description: as §1, §2, §3, §4, §5, §6, §7, §8, §9, §10, §11, §12

[4] = system: RNA3WJ_1.0.0_5IB_3FAM (cis 3WJ with one unpaired nucleotide); assay: Fluorescence quenching binding assay (FAM / Iowa Black); settings: two concentration points
Method: as §13, §2, §3, §4, §5, §14, §15, §16, §17
(§18) The fluorescence quenching experiment was repeated for compounds Ark0000013 and Ark0000014 to measure binding with:
A) RNA3WJ_1.0.0_5IB_3FAM (cis 3WJ with one unpaired nucleotide)
(§19) Both cmpds were tested at two concentration points in the fluorescence quenching assays to assess effect upon RNA constructs utilized in the study. […]

[5] = system: Split3WJ.2 up_5IB+Split3WJ.2_down_3FAM (trans 3WJ as 1:1 mix); assay: as above; settings: two concentration points
Method: as §13, §2, §3, §4, §5, §14, §15, §16, §17, §18
C) Split3WJ.2 up_5IB+Split3WJ.2_down_3FAM (trans 3WJ as 1:1 mix)
as §19

[6] = system: Split3WJ.2_up_5IB+Split3WJ.2_down_3FAM (trans 3WJ as 1:1 mix; Split3WJ_2); assay: Thermal shift binding assay; settings: 1 μM RNA, 8 μM compound, 10 mM CacoK pH 7.2, 30 mM NaCl
Description: as §1, §2, §3, §4, §5, §14
(§20) Final concentrations in the sample: 1 μM RNA, 8 μM compound, 1% DMSO
as §7, §8, §9, §10, §11, §12
(§21) Compounds Ark0000013 and Ark0000014 were also tested in the thermal shift assay against three RNA 3WJ constructs, A) RNA3WJ_1.0.0_5IB_3FAM (cis 3WJ with one unpaired nucleotide); B) Split3WJ.1_up_5IB+Split3WJ.1_down_3FAM (trans 3WJ as 1:1 mix); and C) Split3WJ.2_up_5IB+Split3WJ.2_down_3FAM (trans 3WJ as 1:1 mix).

[7] = system: Split3WJ.1_up_5IB+Split3WJ.1_down_3FAM (trans 3WJ as 1:1 mix; Split3WJ_1); assay: Thermal shift binding assay; settings: 1 μM RNA, 8 μM compound, 10 mM CacoK pH 7.2, 30 mM NaCl
Description: as §1, §2, §3, §4, §5, §14, §20, §7, §8, §9, §10, §11, §12, §21

[8] = system: RNA3WJ_1.0.0_5IB_3FAM (cis 3WJ with one unpaired nucleotide); assay: Thermal shift binding assay; settings: 1 μM RNA, 8 μM compound, 10 mM CacoK pH 7.2, 30 mM NaCl
Description: as §1, §2, §3, §4, §5, §14, §20, §7, §8, §9, §10, §11, §12, §21

[9] = system: Split3WJ.1_up_5IB+Split3WJ.1_down_3FAM (trans 3WJ as 1:1 mix); assay: Fluorescence quenching binding assay (FAM / Iowa Black); settings: two concentration points
Method: as §13, §2, §3, §4, §5, §14, §15, §16, §17, §18
B) Split3WJ.1_up_5IB+Split3WJ.1_down_3FAM (trans 3WJ as 1:1 mix)
as §19

[10] = system: RNA3WJ_2.1.0_5IB_3FAM; assay: Thermal shift binding assay; settings: 1 μM RNA, 8 μM compound, 10 mM CacoK pH 7.2, 30 mM NaCl
Description: as §1, §2, §3, §4, §5, §14, §20, §7, §8, §9, §10, §11, §12

[11] = system: RNA3WJ_1.1.0_5IB_3FAM; assay: Thermal shift binding assay; settings: 1 μM RNA, 8 μM compound, 10 mM CacoK pH 7.2, 30 mM NaCl
Description: as §1, §2, §3, §4, §5, §14, §20, §7, §8, §9, §10, §11, §12

[12] = system: RNA3WJ_2.0.0_5IB_3FAM; assay: Thermal shift binding assay; settings: 1 μM RNA, 8 μM compound, 10 mM CacoK pH 7.2, 30 mM NaCl
Description: as §1, §2, §3, §4, §5, §14, §20, §7, §8, §9, §10, §11, §12

[13] = system: RNA3WJ_1.1.1_5IB_3FAM; assay: Thermal shift binding assay; settings: 1 μM RNA, 8 μM compound, 10 mM CacoK pH 7.2, 30 mM NaCl
Description: as §1, §2, §3, §4, §5, §14, §20, §7, §8, §9, §10, §11, §12

[14] = 1 μM RNA, 8 μM compound, 10 mM CacoK pH 7.2, 30 mM NaCl

effect on melting temperature (in words) ([1]; 1 μM RNA, 8 μM compound): only a very small effect
Melt. Temp. with cmpd [1]: 61.8 °C
Shift melt. Temp. [1]: +0.6 °C
Compound: C#CCCCC(=O)NC[C@H]1O[C@H](O[C@H]2[C@H](O)[C@@H](O[C@H]3O[C@H](CO)[C@@H](O)[C@H](N)[C@H]3O)[C@H](N)C[C@@H]2N)[C@H](O)[C@@H](O)[C@@H]1O [Ark000008]
fluorescence quenching effect (FAM fluorescence signal) [2]: Only Ark000007 showed an increase of quenching effect

Melting temp + cmpd [1, 14]: 61.5 °C
Temp. Shift [1, 14]: 1.6 °C
Melt. Temp. with cmpd [1]: 61.5 °C
Shift melt. Temp. [1]: +1.6 °C
Melting temp + cmpd [3]: 63.9 °C
Temp. Shift [3]: 1.9 °C
fluorescence quenching effect (FAM fluorescence signal) [4]: smaller effect
fluorescence quenching effect (FAM fluorescence signal) [5]: Split3WJ_2 shows larger effect
Melting temp + cmpd [6]: 44.7 °C
Temp. Shift [6]: ~1 °C
Melting temp + cmpd ([6]; listed as Ark0000014): 44.0 °C
Temp. Shift ([6]; listed as Ark0000014): −0.3 °C
Melting temp + cmpd [7]: 38.8 °C
Temp. Shift [7]: ~1 °C
Melting temp + cmpd ([7]; listed as Ark0000014): 37.8 °C
Temp. Shift ([7]; listed as Ark0000014): 0.3 °C
Melting temp + cmpd [8]: 68.4 °C
Temp. Shift [8]: ~3 °C
Melting temp + cmpd ([8]; listed as Ark0000014): 68.1 °C
Temp. Shift ([8]; listed as Ark0000014): 2.5 °C
fluorescence quenching effect (FAM fluorescence signal) [9]: smaller effect
Melting temp + cmpd [10]: 42.0 °C
Temp. Shift [10]: 0.1 °C
Melting temp + cmpd [11]: 65.1 °C
Temp. Shift [11]: 1.8 °C
Melting temp + cmpd [12]: 64.4 °C
Temp. Shift [12]: 2.2 °C
Melting temp + cmpd [13]: 64.3 °C
Temp. Shift [13]: 2.1 °C
Compound: NCCCCCCCNC(=O)c1ccc2c(c1)C1c3cc(C(=O)NCCCCCCCN)ccc3C2c2ccc(C(=O)NCCCCCCCN)cc21 [Ark000014, N^2,N^7,N^15-tris(7-aminoheptyl)-9,10-dihydro-9,10-[1,2]benzenoanthracene-2,7,15-tricarboxamide]
